Columns and labels:
[1] = Estimation of loading and daily maintenance doses and NLME model simulations; parameters: species or system female rabbits; conditions: oral; for Computed maintenance dose: daily; for Computed maintenance dose / Computed loading dose: scaled to the targeted CSS of Table 6
Description: The ultimate goal of this TK investigation was to compute a dosage regimen that allowed targeted steady-state serum concentrations to be attained rapidly for a planned TK/TD trial on the reprotoxic effect of a mixture of environmental contaminants in female rabbits. […] With that in mind, the loading and the daily maintenance doses of each compound were evaluated using Equations 12 and 13, respectively.
This risk was also the reason why the NLME model was employed to simulate the time development of the amounts of compounds in the central and peripheral compartments following administration of the daily maintenance dose of each compound over the same duration.
The loading and maintenance doses computed to ensure a nominal CSS of 1 ng/mL were scaled to determine the doses to be administrated by oral route to female rabbits to maintain the targeted CSS .

[2] = Nonlinear mixed effect (NLME) compartmental modeling of merged IV and oral serum concentrations
Text: A nonlinear mixed effect (NLME) modeling approach was used to analyze simultaneously all data obtained from the different rabbits after both IV and oral administrations and to provide robust estimates of the typical TK parameters.
The primary parameters of the model, namely the volume of distribution of the central compartment (V1), the first-order rate constants ( K10 , K12 , K21 , and Kabs plus K13 , K31 for PFOA) and the bioavailability (F) and their associated precisions [standard error (SE)] were estimated by minimizing an objective function value (OFV) expressed as minus twice the log of the likelihood estimation ( −2LL ). […] Marginal likelihood was approximated by using the Laplacian engine by default and, when this engine was unable to determine the SE of the estimate, the Quasi-Random Parametric Expectation Maximization (QRPEM) was selected.
Between subject variability (BSV) of the parameters was measured using the exponential model θparameter_i=θtv_parameter×exp (ηi), where θparameter_i is the parameter estimated for the ith individual, θtv_parameter is the typical population value of the parameter, and ηi is the deviation associated with the ith individual from the corresponding value of the parameter at the population level.
The distribution of ηi was assumed to be normal with a mean of 0 and a variance ω² . BSV was reported as a coefficient of variation (CV) in the original scale CV(%)=100× exp (ω^2)−1 .
The residual variance was modeled using a combined additive and proportional error model Cobsij=Cpredij(1 + ε1ij) + ε2ij, where Cobsij and Cpredij are respectively the jth observed and predicted concentrations for the ith individual, and ε1ij and ε2ij are the multiplicative and additive residual errors.
Secondary parameters were calculated from the population primary parameters.
The clearance values (CL) were estimated using Equation 5: (5) CL=K10×V1, where V1 is the volume of the central compartment and K10 is the elimination rate constant from the central compartment.
The volume of the peripheral compartment (V2) was estimated with Equation 6: (6) V2=V1×(K12/K21), where K12 and K21 are the distribution rate constants between the central and the peripheral compartments.
The clearance of distribution (Q) was estimated using Equation 7: (7) Q=K12×V1, with […] and K12 as defined above.
The volume of distribution associated with the terminal phase was estimated with Equation 10: (10) VZ=CL/λZ, with λZ as defined above.
The AUC was computed as a secondary parameter using Equation 11: (11) AUC=Dose/CL.
The terminal half-life was estimated with Equation 1, as previously described.

[3] = rodents; ref Chang et al. 2012; cited from earlier work
[4] = Chronic exposure: daily oral mixture for 17 wk, steady-state serum concentrations; conditions: serum, mean±SD, n=16, after 17 weeks of oral mixture; MEHP after DEHP dosing
Description: The objective of this preliminary experiment was to check the ability of our approach to determine the loading and maintenance doses of the eight compounds to be administered simultaneously by oral route to reproduce in female rabbits targeted serum concentrations. The experiment was carried out on thirty-two 2-wk old female New Zealand white rabbits (INRA 1777 line) randomly allocated to a treatment and control groups of 16 rabbits weighing 309±45g and 298±62g , respectively. The treated rabbits were orally administrated a mixture of the eight compounds at a dosage corresponding to the sum of the loading and daily maintenance doses followed by daily administrations of the maintenance dose for 17 wk (see the “Estimation of the doses” section). The control group was orally administrated the vehicle for the same duration.
The volume of the maintenance dosing solution ( 1mL/kg ) was weekly adjusted to the mean BW estimated from the known pattern of growth of the INRA 1777 rabbit line. Oral dosing and antemortem blood sampling were performed as previously described.
Blood samples were left to clot for about 20–30 min at ambient temperature and centrifuged for 20 min at 3,000×g at 25°C. The separated serum was stored in glass tubes at −20°C until assayed.

[5] = TK assay, oral mixture dosing: serum concentrations and noncompartmental analysis (sparse data); conditions: oral mixture dosing, NCA, n=12
Description: (§1) The experiment was carried out on thirty 10-wk old female New Zealand white rabbits (INRA 1777 line) weighing 2.37±0.14kg . […] Blood samples were taken at the designated time points post IV and oral administration: 15 min, 30 min, 1 h, 2 h, 4 h, 8 h, 12 h, 24 h, 3 d, 7 d, and 28 d from groups of 3 or 6 rabbits at each sampling time. Each rabbit was sampled 3 times and 3 rabbits were sampled at each sampling time, except at 30 min post administration, when 6 samples were collected to provide a sufficient blood volume for assaying the compounds. The doses and assay time points were selected to allow the calculation of TK parameters (Table 1) based on preliminary TK data. Residual concentrations of the compounds, and their possible evolution over time, were determined by sampling six entirely untreated rabbits during the TK study on the day of drug administrations, then 14 d and 28 d later.
(§2) The volume administered was adjusted to the animal’s body weight (BW) recorded the day before.
(§3) Intravenous administrations were performed via an indwelling catheter (22G Terumo, 0.9×25mm ) just after its insertion into an ear vein. […] For oral administrations, the mixture of all compounds ( 4mL/kg ) was deposited directly in the mouth of rabbits using a catheter (22G BD Insyte 22G, 0.9×25mm ). Prior to the study, the rabbits had been trained to gradually swallow water and then corn oil.
(§4) Blood samples were collected from the auricular artery using a 20 G needle ( 0.9×25mm ) and a dry tube. The first two blood samples were 8–10mL in volume, whereas a large volume (about 20mL ) was obtained antemortem immediately after electrical stunning (95LX rabbit stunner; Burdis), followed by exsanguination.
(§5) Serum concentration-time profiles of the different compounds were first analyzed using a noncompartmental approach (NCA) involving a sparse data option. Sparse data methodology consists of calculating TK parameters based on the mean profile of all the subjects in the dataset and is appropriate when a rich data series cannot be obtained, as in the present experiment ([FDA 1999]). The area under the concentration time curve ( AUC0−tlast ) and the area under the first moment curve ( AUMC0−tlast ) from dosing time ( t=0 ) to the time of the last measurable concentration were calculated using the linear trapezoidal rule after IV and oral dosing. The area under the serum concentration time curve from dosing time to infinity ( AUC0−inf ) was obtained by adding to AUC0−tlast the area extrapolated from the time of the last measurable concentration to infinity by dividing the last quantifiable serum concentration by the slope of the terminal phase ( λZ ), as estimated by linear regression using the best fit option of Phoenix®.
(§6) The clearance (CL) and apparent clearance (CL_F) were respectively estimated after IV and oral administrations by dividing the administered dose by the AUC0−inf calculated for each analyte.
(§7) The terminal half-life (HL) was estimated with Equation 1: (1) HL=0.69315/λZ where λz is the slope of the terminal phase.
The oral bioavailability (F) was estimated using Equation 2: (2) F=AUCvo0−tlast×Doseiv/AUCiv0−tlast×Dosevo, where AUCiv0−tlast and AUCvo0-tlast are the values of AUC0−tlast obtained after IV and oral dosing, respectively, and Doseiv and Dosevo are the IV and oral doses.

[6] = TK assay, intravenous mixture dosing: serum concentrations and noncompartmental analysis (sparse data); conditions: IV mixture dosing, NCA, n=12
Description: as §1, §2, §3, §4, §5, §6, §7
The mean residence time (MRT) was estimated using Equation 3: (3) MRT=AUMCiv0−tlast /AUCiv0−tlast , where AUCMiv0−tlast and AUCiv0−tlast are the values of AUMC0−tlast and AUC0−tlast obtained after IV dosing.
The steady-state volume of distribution ( VSS ) was estimated using Equation 4: (4) VSS=CL×MRT, with CL and MRT as defined above.

Structure (SMILES) | Computed maintenance dose [1] | Computed loading dose [1] | Oral bioavailability (F) ([2]; NLME model) | Clearance ([2]; population secondary parameter, mean) | Intestinal absorption [3] | Observed CSS [4] | MRT ([5]; MEHP after oral DEHP) | Tmax ([5]; MEHP after oral DEHP) | AUC0−inf ([5]; serum, MEHP after oral DEHP) | Cmax ([5]; serum, doses in Table 3 r3, MEHP measured after oral DEHP, BPSG after BPS) | half-life ([5]; terminal, MEHP after oral DEHP) | MRT [6] | AUC0−inf ([6]; serum) | Cmax ([6]; serum, doses in Table 2 r3, BPSG after BPS dosing) | half-life ([6]; terminal) | Daily maintenance dose ([1]; to maintain serum concentration of 1 ng/mL, daily CL×Css/F, DEHP dose for MEHP in serum) | Loading dose ([1]; to rapidly attain serum concentration of 1 ng/mL, Vss×Css/F, DEHP dose for MEHP in serum)
O=S(=O)(O)C(F)(F)C(F)(F)C(F)(F)C(F)(F)C(F)(F)C(F)(F)C(F)(F)C(F)(F)F [PFOS, perfluorooctane sulfonate] | 0.0013 mg/kg | 0.06 mg/kg | 100% | lower than 0.01 L/kg/h | 117% | 154 ± 25 ng/mL |  |  |  |  |  |  |  |  |  |  | 
O=C(O)[C@H]1O[C@@H](Oc2ccc(S(=O)(=O)c3ccc(O)cc3)cc2)[C@H](O)[C@@H](O)[C@@H]1O [BPSG, bisphenol S glucuronide] |  |  |  |  |  |  | 7.66 h | 0.27 h | 15.8 µM·h | 6.91 µM | 4.23 h | 3.16 h | 5.18 µM·h | 5.78 µM | 3.80 h |  | 
CCCCC(CC)COC(=O)c1ccccc1C(=O)OCC(CC)CCCC (stereo not shown) [DEHP, di(2-ethylhexyl)phthalate] | 0.78 mg/kg | 0.264 mg/kg |  |  |  |  |  |  |  |  |  |  |  |  |  | 0.013 mg/kg | 0.0044 mg/kg
